Results: article PMC5712521, “Dendrogenin A drives LXR to trigger lethal autophagy in cancers” (Nature Communications, 2017)

Assays:
[1] = target: T1, human liver-X-receptor LXRα (Homo sapiens, UniProt Q13133); test: LXRE-luciferase gene reporter assay in HEK293T, LXRα; format: cell-based; details: LXRα; 10 µM 22(R)HC; read-out: IC50, inhibition of LXR-dependent luciferase activity stimulated by 22(R)HC
T1 construct: expressed in transfected cells; host or cells: HEK293T
T1 sequence (Q13133 1-447): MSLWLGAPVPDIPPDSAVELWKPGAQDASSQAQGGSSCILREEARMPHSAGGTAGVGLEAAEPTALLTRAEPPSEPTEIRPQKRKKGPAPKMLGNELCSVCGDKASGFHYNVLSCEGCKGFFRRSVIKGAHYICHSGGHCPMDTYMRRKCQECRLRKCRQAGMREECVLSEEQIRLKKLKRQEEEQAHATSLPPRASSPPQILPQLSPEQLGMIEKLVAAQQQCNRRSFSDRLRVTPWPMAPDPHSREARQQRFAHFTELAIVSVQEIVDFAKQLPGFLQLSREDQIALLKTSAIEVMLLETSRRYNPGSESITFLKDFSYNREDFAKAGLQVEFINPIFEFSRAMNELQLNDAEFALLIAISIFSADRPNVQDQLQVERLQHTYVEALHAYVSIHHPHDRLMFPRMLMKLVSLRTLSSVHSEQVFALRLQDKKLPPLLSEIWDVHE
T1 sequence (P48443 1-463 partner): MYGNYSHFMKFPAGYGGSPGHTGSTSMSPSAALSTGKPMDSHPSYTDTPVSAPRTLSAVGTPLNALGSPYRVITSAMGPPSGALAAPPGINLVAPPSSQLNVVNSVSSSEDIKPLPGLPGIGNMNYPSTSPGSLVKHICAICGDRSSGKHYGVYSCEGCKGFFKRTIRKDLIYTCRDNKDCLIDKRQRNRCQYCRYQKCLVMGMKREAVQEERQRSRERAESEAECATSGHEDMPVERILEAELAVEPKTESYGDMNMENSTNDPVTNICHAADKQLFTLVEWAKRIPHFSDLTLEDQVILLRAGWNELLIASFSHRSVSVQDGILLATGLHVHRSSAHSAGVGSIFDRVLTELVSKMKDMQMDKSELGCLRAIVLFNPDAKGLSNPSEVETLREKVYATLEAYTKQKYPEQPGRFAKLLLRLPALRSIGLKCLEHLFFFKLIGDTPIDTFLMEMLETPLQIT
From the text: (§1) HEK293T were used for luciferase assays. Cells were transfected using the PolyEthylenImine (PEI) method with human retinoid-X receptor (RXRγ) and human liver-X-receptors (LXRα or LXRβ) with LXRE-Luc; RXRγ and human farnesoid X receptor (FXR) with EcRE-Luc; RXRγ and human steroid and xenobiotic X receptor (SXR) with DR4-Luc; RXRγ and human peroxisome proliferator activated receptors (PPARα, or PPARγ) with PPRE-Luc; RXRγ and human retinoic acid receptor (RARα) with DR1-Luc; human AHR and human ARNT with a DRE-Luc; human vitamin D receptor (VDR) with VDRE-Luc. Cells were transfected with plasmids encoding human glucocorticoid receptor (GR), progesterone receptor (PR), or androgen receptor (AR) with MMTV-Luc; or estrogen receptors (ERα and ERβ) with an ERE-Luc. The day after transfection with the luciferase reporter gene construct, cells were seeded in 12-well plates (50,000 cells per well). After 6 h, cells were then treated with the following ligands dissolved in ethanol: 10 nM estradiol (E2) for ERα and ERβ; 10 nM R1881 for AR; 10 nM R5020 for PR; 10 nM dexamethasone for GR; 10 µM fenofibrate for PPARα; 100 nM rosiglitazone (BRL 49653) for PPARγ; 100 nM cis-retinoic acid (cRA) for RAR; 10 nM dioxine for AHR, 10 µM rifampicine for SXR and 10 µM 22(R) hydroxycholesterol (22(R)HC) for LXRα and LXRβ. At the end of each treatment, cells were lysed in 100 μl lysis buffer (Promega). Luciferase activity was measured using the luciferase assay reagent (Promega), according to the manufacturer’s instructions. Protein concentrations were measured using the Bradford method to normalize luciferase activities. For each condition, luciferase activity was calculated from the data of three independent wells.

[2] = tested on: B16F10 tumors; test: B16F10 melanoma tumors in mice; format: in vivo; details: mouse B16F10; i.p. 20 mg/kg/day
Procedure: Exponentially growing cells were harvested, washed twice in PBS then resuspended in PBS. SKMEL-28, shSKMEL-28 clones (5 × 10^6 cells) and B16F10 (3 × 10^5) cells were injected subcutaneously (s.c.) into the flank of nude mice. HL60, KG1 and shKG1-clones (5 × 10^6) were inoculated s.c. into the flanks of NOD/SCID mice. When tumors were palpable, animals (n = 10–20 mice per group, as indicated) were randomized to receive either DDA (20 mg/kg) intraperitoneally (i.p.) or 40 mg/kg by oral gavage (p.o), once a day, or vehicle solvent for the indicated time. Animals were examined daily and body weights were measured twice a week. In all experiments, tumor volume was determined by direct measurement with a caliper and was calculated using the formula (width^2 × length)/2. At the end of experiments, mice were sacrificed and tumors were excised and divided for intra-tumoral DDA quantification, immunoblotting, or immunohistochemistry analyses.

[3] = tested on: AML cells; test: Immunoblot of caspase-3 and PARP in AML cells; format: cell-based, human; details: 24 h
Procedure: Immunoblotting was carried out as described previously. Proteins were separated on SDS-PAGE gels, electro-transferred onto polyvinylidene difluoride membranes and incubated overnight at 4 °C with the following antibodies: anti-Atg3, anti-Atg5 (D1G9), anti-Atg7 (D12B11), anti-Beclin (D40C5), anti-caspase-3 (Cell Signaling), anti-Bcl-2 (Millipore), anti-Bax (Millipore), anti-LC3 (Sigma-Aldrich), anti-LXRα (SantaCruz), anti-LXRβ (SantaCruz), anti-Nur77 (Active motif), anti-NOR1 (R&D systems), anti-PARP (Cell Signaling), anti-Vps34 (Cell Signaling), or anti-Actin (Millipore). For visualization, an ECL plus kit (Amersham Biosciences) was used, and chemiluminescence was measured by autoradiography (Supplementary Fig. 9). Specific bands were quantified with ImageQuant software.
Supplementary Fig. 6. […]
AML cells treated with DDA for 24 h in the absence or presence of 50 µM z- VAD-fmk (a
caspase inhibitor). j Effect of z-VAD-fmk on DDA-induced c ytotox icit y in KG1 and HL60 cells. […]
Images are
representative of 3 independent experim ents.

[4] = target: T2, human liver-X-receptor LXRβ (Homo sapiens, UniProt P55055); test: LXRE-luciferase gene reporter assay in HEK293T, LXRβ; format: cell-based; details: LXRβ; 10 µM 22(R)HC; read-out: IC50, inhibition of LXR-dependent luciferase activity stimulated by 22(R)HC
T2 construct: expressed in transfected cells; host or cells: HEK293T
T2 sequence (P55055 whole entry, one chain of several): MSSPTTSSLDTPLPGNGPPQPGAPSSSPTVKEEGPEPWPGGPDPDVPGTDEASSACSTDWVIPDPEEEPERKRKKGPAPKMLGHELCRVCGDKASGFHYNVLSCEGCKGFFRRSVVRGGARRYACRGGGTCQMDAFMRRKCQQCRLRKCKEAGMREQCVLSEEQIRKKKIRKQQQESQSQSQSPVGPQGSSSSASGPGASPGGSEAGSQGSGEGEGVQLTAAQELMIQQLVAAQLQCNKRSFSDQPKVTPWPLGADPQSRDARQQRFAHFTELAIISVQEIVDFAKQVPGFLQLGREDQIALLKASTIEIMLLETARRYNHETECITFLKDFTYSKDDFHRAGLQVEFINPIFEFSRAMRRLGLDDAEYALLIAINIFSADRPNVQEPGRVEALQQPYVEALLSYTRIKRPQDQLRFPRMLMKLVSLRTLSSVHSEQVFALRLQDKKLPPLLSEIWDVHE
From the text: as §1, with “After 6 h, cells were then treated with the following ligands dissolved in ethanol: 10 nM estradiol (E2) for ERα and ERβ; 10 nM R1881 for AR; 10 nM R5020 for PR; 10 nM dexamethasone for GR; 10 µM fenofibrate for PPARα; 100 nM rosiglitazone (BRL 49653) for PPARγ; 100 nM cis-retinoic acid (cRA) for RAR; 10 nM dioxine for AHR, 10 µM rifampicine for SXR and 10 µM 22(R) hydroxycholesterol (22(R)HC) for LXRα and LXRβ. At the end of each treatment, cells were lysed in 100 μl lysis buffer (Promega).” left out

With `CC(C)CCC[C@@H](C)[C@H]1CC[C@H]2[C@@H]3C[C@@H](NCCc4cnc[nH]4)[C@@]4(O)C[C@@H](O)CC[C@]4(C)[C@H]3CC[C@]12C` [DDA, Dendrogenin A] the IC50 [1] was 362 ± 52 nM, the tumor growth [2] was “significantly reduced the growth” and the “cleaved PARP, densitometry” value ([3]; 5 µM DDA + 50 µM z-VAD-fmk) was 1.9. The “cleaved casp 3, densitometry” value ([3]; 5 µM DDA + 50 µM z-VAD-fmk) was 0.5, the “cleaved PARP, densitometry” value ([3]; 5 µM DDA, without z-VAD-fmk) was 6.1 and the “cleaved casp 3, densitometry” value ([3]; 5 µM DDA, without z-VAD-fmk) was 4.3. For the same compound, the “cleaved PARP, densitometry” value ([3]; 10 µM DDA + 50 µM z-VAD-fmk) was 6.1, the “cleaved casp 3, densitometry” value ([3]; 10 µM DDA + 50 µM z-VAD-fmk) was 0.8 and the “cleaved PARP, densitometry” value ([3]; 10 µM DDA, without z-VAD-fmk) was 10.8. For the same compound, the “cleaved casp 3, densitometry” value ([3]; 10 µM DDA, without z-VAD-fmk) was 5.2 and the IC50 [4] was 76 ± 12 nM.
